Each structure is given as a SMILES string.

T1 sequence (Q13304 whole entry): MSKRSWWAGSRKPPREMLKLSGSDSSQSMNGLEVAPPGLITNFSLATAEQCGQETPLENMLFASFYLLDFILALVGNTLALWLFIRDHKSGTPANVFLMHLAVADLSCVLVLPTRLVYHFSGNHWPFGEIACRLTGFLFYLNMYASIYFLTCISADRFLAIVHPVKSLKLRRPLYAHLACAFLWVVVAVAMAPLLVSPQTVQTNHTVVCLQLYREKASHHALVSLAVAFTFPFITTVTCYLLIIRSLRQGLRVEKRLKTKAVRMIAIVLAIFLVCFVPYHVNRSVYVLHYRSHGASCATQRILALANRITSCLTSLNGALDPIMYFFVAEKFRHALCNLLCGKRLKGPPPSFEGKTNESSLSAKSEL

The test concerns the target T1, human GPR17 receptor (Homo sapiens, UniProt Q13304).
T1 construct: host or cells: HEK-293
Put plainly: Calcium mobilization functional assay (Fluo-8, FLIPR TETRA) in HEK-293 hGPR17 (Gα-q assay). As to conditions: antagonism of MDL29,951 (~EC80) induced Ca2+ signal; cell line (HEK-293 hGPR17 or HEK-293 Suchi5 hGPR17) not given. It is filed as cell-based. How it is done:
HEK-293 cells stably expressing the human GPR17 receptor (HEK-293 hGPR17) developed by Axxam (Bresso, Milan, Italy) were cultured at 37° C. in a humidified atmosphere of 5% CO2. Cells were grown in EMEM supplemented with FBS (10%), Penicillin/Streptomycin (1%), Ultraglutamine I (2 mM), puromycin (0.6 μg/mL), G418 (0.4 mg/mL), zeocin (50 μg/mL). This cell line was used to test the compound antagonistic activity by monitoring the Gα-q based signaling. Signaling via Gα-q leads to mobilization of calcium from internal stores. Elevated intracellular calcium levels can then be measured with calcium-sensitive fluorescent dyes (e.g., Fluo 8-No Wash Dye).
GPR17 activation leads to both an increase in intracellular calcium (via Gα-q) and a decrease in cAMP levels (via Gα-i), implicating that both of these pathways play a role for in vivo function.
Experiments were performed using the below cell lines, as described in part 1: • HEK-293 hGPR17 (used to study the compounds acting via Gα-q pathway) • HEK-293 Suchi5 hGPR17 (used to study the compounds acting via Gα-i pathway, where the Gα-i signaling is switched to a Gα-q signaling thanks to the Gα-i/q chimera Suchi5)
GPR17 activation was able to induce an endoplasmic reticulum calcium (Ca^2+) store release in cytosol which could be measured using the fluorescent Ca^2+ sensitive dye Fluo-8 No Wash Dye as readout.
HEK-293 hGPR17 and HEK-293 Suchi5 hGPR17 were seeded at a density of 15,000 cells/well into poly-D-lysine coated black 384-well plates with clear bottom in complete medium. Cells were incubated overnight at 37° C. in a humidified atmosphere of 5% CO2. Twenty-four hours after seeding, the culture medium was carefully removed manually and the cells were loaded for 60 minutes at room temperature with the Ca^2+ sensitive Fluo-8 No Wash Dye, according to manufacturer's instructions. Cells were then assayed using a fluorometric imaging plate reader (FLIPR^TETRA). Fluorescence (excitation: 470-495 nm; emission: 515-575 nm) was recorded during the experiment. […] After twenty minutes, a second injection of MDL29,951 at ˜EC80 (500 nM for HEK-293 hGPR17 and 2 nM for HEK-293 Suchi5 hGPR17) in assay buffer was performed at the FLIPR^TETRA and the signal of the emitted fluorescence was recorded for additional 2 minutes. All the compound injections and incubations were performed in duplicate. For data quality and data analysis the Screener® 16.0.6 (Genedata) software was used.
In general terms: Calcium assays in cells follow changes in intracellular calcium, usually with a dye or a luminescent sensor.
Take `N#Cc1ccc(NS(=O)(=O)c2c[nH]c(-c3ccccc3F)c2)cc1F` [Cpd 072, N-(4-cyano-3-fluoro-phenyl)-5-(2-fluorophenyl)-1H-pyrrole-3-sulfonamide]: the IC50 is less than 500 nM. With `O=S(=O)(Nc1cc(F)c(C(F)(F)F)cc1F)c1c[nH]c(-c2ccccc2F)c1` [Cpd 073, N-[2,5-difluoro-4-(trifluoromethyl)phenyl]-5-(2-fluorophenyl)-1H-pyrrole-3-sulfonamide] the figure was less than 500 nM; with `N#Cc1cc(F)c(NS(=O)(=O)c2c[nH]c(-c3ccccc3F)c2)cc1F` [Cpd 074, N-(4-cyano-2,5-difluoro-phenyl)-5-(2-fluorophenyl)-1H-pyrrole-3-sulfonamide], less than 500 nM; with `Cc1cc(F)c(NS(=O)(=O)c2c[nH]c(-c3ccccc3F)c2)cc1F` [Cpd 075, N-(2,5-difluoro-4-methyl-phenyl)-5-(2-fluorophenyl)-1H-pyrrole-3-sulfonamide], less than 500 nM. `N#Cc1cc(F)c(NS(=O)(=O)c2c[nH]c(-c3ccccc3)c2F)cc1F` [Cpd 076, N-(4-cyano-2,5-difluoro-phenyl)-4-fluoro-5-phenyl-1H-pyrrole-3-sulfonamide]: the IC50 is less than 500 nM. With `N#Cc1cc(F)c(NS(=O)(=O)c2cc(-c3ccccc3)[nH]c2F)cc1F` [Cpd 077, N-(4-cyano-2,5-difluoro-phenyl)-2-fluoro-5-phenyl-1H-pyrrole-3-sulfonamide] the figure was 500 to 5000 nM; with `Cn1nccc1-c1cc(S(=O)(=O)Nc2ccc(C#N)cc2F)c[nH]1` [Cpd 078, N-(4-cyano-2-fluoro-phenyl)-5-(2-methylpyrazol-3-yl)-1H-pyrrole-3-sulfonamide], 5000 to 50000 nM; with `N#Cc1ccc(NS(=O)(=O)c2c[nH]c(-c3ccccc3C(F)(F)F)c2)c(F)c1` [Cpd 079, N-(4-cyano-2-fluoro-phenyl)-5-[2-(trifluoromethyl)phenyl]-1H-pyrrole-3-sulfonamide], 500 to 5000 nM.

In the case of `COCc1ccccc1-c1cc(S(=O)(=O)Nc2ccc(C#N)cc2F)c[nH]1` [Cpd 080, N-(4-cyano-2-fluoro-phenyl)-5-[2-(methoxymethyl)phenyl]-1H-pyrrole-3-sulfonamide], the IC50 lay in the range of 500 to 5000 nM.

Turning to `Cn1ccc(-c2cc(S(=O)(=O)Nc3ccc(C#N)cc3F)c[nH]2)n1` [Cpd 081, N-(4-cyano-2-fluoro-phenyl)-5-(1-methylpyrazol-3-yl)-1H-pyrrole-3-sulfonamide], the IC50 fell in the range of 500 to 5000 nM. With `Cc1cccc(F)c1-c1cc(S(=O)(=O)Nc2ccc(C#N)cc2F)c[nH]1` [Cpd 082, N-(4-cyano-2-fluoro-phenyl)-5-(2-fluoro-6-methyl-phenyl)-1H-pyrrole-3-sulfonamide] the figure was less than 500 nM; with `COc1cccc(F)c1-c1cc(S(=O)(=O)Nc2ccc(C#N)cc2F)c[nH]1` [Cpd 083, N-(4-cyano-2-fluoro-phenyl)-5-(2-fluoro-6-methoxy-phenyl)-1H-pyrrole-3-sulfonamide], less than 500 nM; with `COc1ccc(F)c(-c2cc(S(=O)(=O)Nc3ccc(C#N)cc3F)c[nH]2)c1` [Cpd 084, N-(4-cyano-2-fluoro-phenyl)-5-(2-fluoro-5-methoxy-phenyl)-1H-pyrrole-3-sulfonamide], less than 500 nM. Next, `Cc1cccc(C)c1-c1cc(S(=O)(=O)Nc2ccc(C#N)cc2F)c[nH]1` [Cpd 085, N-(4-cyano-2-fluoro-phenyl)-5-(2,6-dimethylphenyl)-1H-pyrrole-3-sulfonamide]: 500 to 5000 nM. With `COc1ccc(-c2cc(S(=O)(=O)Nc3ccc(C#N)cc3F)c[nH]2)c(F)c1` [Cpd 086, N-(4-cyano-2-fluoro-phenyl)-5-(2-fluoro-4-methoxy-phenyl)-1H-pyrrole-3-sulfonamide] the figure was 500 to 5000 nM; with `COc1cccc(-c2cc(S(=O)(=O)Nc3ccc(C#N)cc3F)c[nH]2)c1F` [Cpd 087, N-(4-cyano-2-fluoro-phenyl)-5-(2-fluoro-3-methoxy-phenyl)-1H-pyrrole-3-sulfonamide], 500 to 5000 nM. On to `N#Cc1ccc(NS(=O)(=O)c2c[nH]c(-c3cc(F)c(F)cc3F)c2)c(F)c1` [Cpd 088, N-(4-cyano-2-fluoro-phenyl)-5-(2,4,5-trifluorophenyl)-1H-pyrrole-3-sulfonamide], for which the IC50 is less than 500 nM. In the case of `COc1nccc(F)c1-c1cc(S(=O)(=O)Nc2ccc(C#N)cc2F)c[nH]1` [Cpd 089, N-(4-cyano-2-fluoro-phenyl)-5-(4-fluoro-2-methoxy-3-pyridyl)-1H-pyrrole-3-sulfonamide], the half-maximal inhibitory concentration (IC50) is less than 500 nM. Next, `N#Cc1ccc(NS(=O)(=O)c2c[nH]c(-c3ncccc3F)c2)c(F)c1` [Cpd 090, N-(4-cyano-2-fluorophenyl)-5-(3-fluoropyridin-2-yl)-1H-pyrrole-3-sulfonamide]: less than 500 nM; `N#Cc1ccc(NS(=O)(=O)c2c[nH]c(-c3c(F)cccc3F)c2)c(F)c1` [Cpd 091, N-(4-cyano-2-fluoro-phenyl)-5-(2,6-difluorophenyl)-1H-pyrrole-3-sulfonamide]: less than 500 nM. Next, `N#Cc1ccc(NS(=O)(=O)c2c[nH]c(-c3ccccc3C(F)F)c2)c(F)c1` [Cpd 093, N-(4-cyano-2-fluoro-phenyl)-5-[2-(difluoromethyl)phenyl]-1H-pyrrole-3-sulfonamide]: 500 to 5000 nM. Next, `N#Cc1ccc(NS(=O)(=O)c2c[nH]c(-c3ncccn3)c2)c(F)c1` [Cpd 094, N-(4-cyano-2-fluorophenyl)-5-(pyrimidin-2-yl)-1H-pyrrole-3-sulfonamide]: 5000 to 50000 nM.

Consider `COc1cccc(OC)c1-c1cc(S(=O)(=O)Nc2ccc(C#N)cc2F)c[nH]1` [Cpd 095, N-(4-cyano-2-fluoro-phenyl)-5-(2,6-dimethoxyphenyl)-1H-pyrrole-3-sulfonamide], for which the IC50 was in the range of 500 to 5000 nM. Next, `N#Cc1ccc(NS(=O)(=O)c2c[nH]c(-c3ccc(C#N)cc3F)c2)c(F)c1` [Cpd 096, N,5-bis(4-cyano-2-fluoro-phenyl)-1H-pyrrole-3-sulfonamide]: 500 to 5000 nM. With `N#Cc1ccc(NS(=O)(=O)c2c[nH]c(-c3cc(F)cc(F)c3F)c2)c(F)c1` [Cpd 097, N-(4-cyano-2-fluoro-phenyl)-5-(2,3,5-trifluorophenyl)-1H-pyrrole-3-sulfonamide] the figure was 500 to 5000 nM. Turning to `N#Cc1ccc(NS(=O)(=O)c2c[nH]c(C3CCC3)c2)c(F)c1` [Cpd 098, N-(4-cyano-2-fluorophenyl)-5-cyclobutyl-1H-pyrrole-3-sulfonamide], the IC50 lay within 500 to 5000 nM. With `O=S(=O)(Nc1ccc(C(F)(F)F)nc1)c1c[nH]c(-c2ccccc2)c1` [Cpd 099, 5-phenyl-N-[6-(trifluoromethyl)-3-pyridyl]-1H-pyrrole-3-sulfonamide] the figure was 500 to 5000 nM. As to `Cc1ncccc1NS(=O)(=O)c1c[nH]c(-c2ccccc2)c1` [Cpd 100, N-(2-methyl-3-pyridyl)-5-phenyl-1H-pyrrole-3-sulfonamide], the IC50 lay in the range of 500 to 5000 nM.

As for `Cc1ccc(NS(=O)(=O)c2c[nH]c(-c3ccccc3)c2)c(C)n1` [Cpd 101, N-(2,6-dimethyl-3-pyridyl)-5-phenyl-1H-pyrrole-3-sulfonamide], the IC50 was in the range of 500 to 5000 nM. With `N#Cc1ccc(NS(=O)(=O)c2c[nH]c(-c3cccs3)c2)c(F)c1` [Cpd 102, N-(4-cyano-2-fluoro-phenyl)-5-(2-thienyl)-1H-pyrrole-3-sulfonamide] the figure was less than 500 nM; with `N#Cc1ccc(NS(=O)(=O)c2c[nH]c(-c3ccsc3)c2)c(F)c1` [Cpd 103, N-(4-cyano-2-fluoro-phenyl)-5-(3-thienyl)-1H-pyrrole-3-sulfonamide], less than 500 nM; with `N#Cc1ccc(NS(=O)(=O)c2c[nH]c(-c3cc(F)cc(F)c3)c2)c(F)c1` [Cpd 104, N-(4-cyano-2-fluoro-phenyl)-5-(3,5-difluorophenyl)-1H-pyrrole-3-sulfonamide], 500 to 5000 nM. Take `N#Cc1ccc(NS(=O)(=O)c2c[nH]c(-c3cccnc3F)c2)c(F)c1` [Cpd 105, N-(4-cyano-2-fluoro-phenyl)-5-(2-fluoro-3-pyridyl)-1H-pyrrole-3-sulfonamide]: the IC50 is 500 to 5000 nM. In the case of `N#Cc1ccc(NS(=O)(=O)c2c[nH]c(-c3ccccc3C#N)c2)c(F)c1` [Cpd 106, N-(4-cyano-2-fluoro-phenyl)-5-(2-cyanophenyl)-1H-pyrrole-3-sulfonamide], the 50% inhibitory concentration (IC50) lay within 500 to 5000 nM.

For orientation: IC50 means the point on the concentration scale where inhibition reaches its midpoint.

These data come from patent publication US20240299385A1 (ReWind Therapeutics NV, priority 2021, published 2024).
